Experimental data from patent US7803815B2, “Indol-3-yl-corbonyl-piperidin-benzoimidazol derivatives” (Hoffmann-La Roche Inc., priority 2005, dated 2010).

Target: T1, human V1a receptor (Homo sapiens, UniProt P37288)
T1 construct: expressed in transfected cells; host or cells: HEK293 cells, transiently transfected; membrane preparation
Assay: human V1a receptor binding, 3H-Vasopressin SPA on membranes of transfected HEK293 cells
Conditions: displacement of 4 nM 3H-Vasopressin; HEK293 cell membranes; 1 h at room temperature; Ki from IC50 by the Cheng-Prussoff equation
Experimental: The human V1a receptor was cloned by RT-PCR from total human liver RNA. The coding sequence was subcloned in an expression vector after sequencing to confirm the identity of the amplified sequence. […] Cell membranes were prepared from HEK293 cells transiently transfected with the expression vector and grown in 20 liter fermenters with the following protocol.
50 g of cells are resuspended in 30 ml freshly prepared ice cold Lysis buffer (50 mM HEPES, 1 mM EDTA, 10 mM MgCl2 adjusted to pH=7.4+ complete cocktail of protease inhibitor (Roche Diagnostics)). Homogenized with Polytron for 1 min and sonicated on ice for 2×2 minutes at 80% intensity (Vibracell sonicator). The preparation is centrifuged 20 min at 500 g at 4° C., the pellet is discarded, and the supernatant centrifuged 1 hour at 43,000 g at 4° C. (19,000 rpm). The pellet is resuspended in 12.5 ml Lysis buffer+12.5 ml Sucrose 20% and homogenized using a Polytron for 1-2 min. The protein concentration is determined by the Bradford method, and aliquots are stored at −80° C. until use. For binding studies 60 mg Yttrium silicate SPA beads (Amersham) are mixed with an aliquot of membrane in binding buffer (50 mM Tris, 120 mM NaCl, 5 mM, KCl, 2 mM CaCl2, 10 mM MgCl2) for 15 minutes with mixing. 50 ul of bead/membrane mixture is then added to each well of a 96 well plate, followed by 50 ul of 4 nM 3H-Vasopressin (American Radiolabeled Chemicals). For total binding measurement, 100 ul of binding buffer are added to the respective wells, for non-specific binding 100 ul of […] cold vasopressin and for compound testing 100 ul of a serial dilution of each compound in 2% DMSO. The plate is incubated 1 h at room temperature, centrifuged 1 min at 1000 g and counted on a Packard Top-Count. Non-specific binding counts are subtracted from each well, and data is normalized to the maximum specific binding set at 100%. To calculate an IC 50, the curve is fitted using a non-linear regression model (XLfit), and the Ki is calculated using the Cheng-Prussoff equation.

T1 sequence (P37288 whole entry): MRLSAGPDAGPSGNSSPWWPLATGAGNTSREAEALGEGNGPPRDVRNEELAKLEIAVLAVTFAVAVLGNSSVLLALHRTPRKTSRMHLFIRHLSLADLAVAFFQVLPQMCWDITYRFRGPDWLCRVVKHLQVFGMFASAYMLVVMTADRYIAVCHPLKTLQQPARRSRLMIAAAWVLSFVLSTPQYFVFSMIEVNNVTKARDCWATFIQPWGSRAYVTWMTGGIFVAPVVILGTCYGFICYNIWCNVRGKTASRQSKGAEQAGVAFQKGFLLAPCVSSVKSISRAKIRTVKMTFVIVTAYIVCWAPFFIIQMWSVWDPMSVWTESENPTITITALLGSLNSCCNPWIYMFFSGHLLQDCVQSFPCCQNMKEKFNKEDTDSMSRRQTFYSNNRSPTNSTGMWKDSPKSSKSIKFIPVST

Row | SMILES | Ki [µM]
1 | N#CCn1cc(C(=O)N2CCC(n3c(=O)[nH]c4ccccc43)CC2)c2ccc(Cl)cc21 [Example 21, {6-Chloro-3-[4-(2-oxo-2,3-dihydro-benzoimidazol-1-yl)-piperidine-1-carbonyl]-indol-1-yl}-acetonitrile] | 0.006
2 | CN(C)C(=O)Cn1cc(C(=O)N2CCC(n3c(=O)[nH]c4ccccc43)CC2)c2cc(Cl)c(Cl)cc21 [Example 48, 2-{5,6-Dichloro-3-[4-(2-oxo-2,3-dihydro-benzoimidazol-1-yl)-piperidine-1-carbonyl]-indol-1-yl}-N,N-dimethyl-acetamide] | 0.003
3 | CN(C)CCn1c(=O)n(C2CCN(C(=O)c3c[nH]c4cc(Cl)ccc34)CC2)c2ccccc21 [Example 27, 1-[1-(6-Chloro-1H-indole-3-carbonyl)-piperidin-4-yl]-3-(2-dimethylamino-ethyl)-1,3-dihydro-benzoimidazol-2-one] | 0.005
4 | O=C(c1cn(-c2cc(F)cc(F)c2)c2cc(Cl)ccc12)N1CCC(n2c(=O)[nH]c3ccccc32)CC1 [Example 40, 1-{1-[6-Chloro-1-(3,5-difluoro-phenyl)-1H-indole-3-carbonyl]-piperidin-4-yl}-1,3-dihydro-benzoimidazol-2-one] | 0.013
5 | CC(C)n1cc(C(=O)N2CCC(n3c(=O)[nH]c4ccccc43)CC2)c2ccccc21 [Example 14, 1-[1-(1-Isopropyl-1H-indole-3-carbonyl)-piperidin-4-yl]-1,3-dihydro-benzoimidazol-2-one] | 0.032
6 | O=C(c1cn(Cc2cc(F)cc(F)c2)c2cc(Cl)ccc12)N1CCC(n2c(=O)[nH]c3ccccc32)CC1 [Example 33, 1-{1-[6-Chloro-1-(3,5-difluoro-benzyl)-1H-indole-3-carbonyl]-piperidin-4-yl}-1,3-dihydro-benzoimidazol-2-one] | 0.015
7 | O=C(c1c[nH]c2cc(Cl)ccc12)N1CCC(n2c(=O)[nH]c3ccccc32)CC1 [Example 18, 1-[1-(6-Chloro-1H-indole-3-carbonyl)-piperidin-4-yl]-1,3-dihydro-benzoimidazol-2-one] | 0.007
8 | O=C(Cn1cc(C(=O)N2CCC(n3c(=O)[nH]c4ccccc43)CC2)c2ccc(Cl)cc21)c1cccc(F)c1 [Example 29, 1-(1-{6-Chloro-1-[2-(3-fluoro-phenyl)-2-oxo-ethyl]-1H-indole-3-carbonyl}-piperidin-4-yl)-1,3-dihydro-benzoimidazol-2-one] | 0.022
9 | O=C(c1cn(C(=O)N2CCCCC2)c2cc(Cl)ccc12)N1CCC(n2c(=O)[nH]c3ccccc32)CC1 [Example 41, 1-{1-[6-Chloro-1-(piperidine-1-carbonyl)-1H-indole-3-carbonyl]-piperidin-4-yl}-1,3-dihydro-benzoimidazol-2-one] | 0.014
10 | Cc1[nH]c2ccccc2c1C(=O)N1CCC(n2c(=O)[nH]c3ccccc32)CC1 [Example 10, 1-[1-(2-Methyl-1H-indole-3-carbonyl)-piperidin-4-yl]-1,3-dihydro-benzoimidazol-2-one] | 0.039
11 | CN(C)C(=O)Cn1cc(C(=O)N2CCC(n3c(=O)[nH]c4ccccc43)CC2)c2ccc(Cl)cc21 [Example 46, 2-{6-Chloro-3-[4-(2-oxo-2,3-dihydro-benzoimidazol-1-yl)-piperidine-1-carbonyl]-indol-1-yl}-N,N-dimethyl-acetamide] | 0.002
12 | CCC(C)C(=O)c1[nH]c2ccccc2c1C(=O)N1CCC(n2c(=O)[nH]c3ccccc32)CC1 (stereo not shown) [Example 22, 1-{1-[2-(2-Methyl-butyryl)-1H-indole-3-carbonyl]-piperidin-4-yl}-1,3-dihydro-benzoimidazol-2-one] | 0.011
13 | Cc1c(C(=O)N2CCC(n3c(=O)n(CCN(C)C)c4ccccc43)CC2)c2ccccc2n1Cc1ccccc1 [Example 20, 1-[1-(1-Benzyl-2-methyl-1H-indole-3-carbonyl)-piperidin-4-yl]-3-(2-dimethylamino-ethyl)-1,3-dihydro-benzoimidazol-2-one] | 0.005
14 | CC(C)n1cc(C(=O)N2CCC(n3c(=O)[nH]c4ccccc43)CC2)c2ccc(F)cc21 [Example 12, 1-[1-(6-Fluoro-1-isopropyl-1H-indole-3-carbonyl)-piperidin-4-yl]-1,3-dihydro-benzoimidazol-2-one] | 0.013
15 | Cc1oc(-c2ccccc2)nc1C(=O)Cn1cc(C(=O)N2CCC(n3c(=O)[nH]c4ccccc43)CC2)c2ccc(Cl)cc21 [Example 45, 1-(1-{6-Chloro-1-[2-(5-methyl-2-phenyl-oxazol-4-yl)-2-oxo-ethyl]-1H-indole-3-carbonyl}-piperidin-4-yl)-1,3-dihydro-benzoimidazol-2-one] | 0.043
16 | Cc1c(C(=O)N2CCC(n3c(=O)[nH]c4ccccc43)CC2)c2ccccc2n1Cc1ccccc1 [Example 23, 1-[1-(1-Benzyl-2-methyl-1H-indole-3-carbonyl)-piperidin-4-yl]-1,3-dihydro-benzoimidazol-2-one] | 0.006
17 | CC(C)n1cc(C(=O)N2CCC(n3c(=O)[nH]c4ccccc43)CC2)c2ccc(Cl)cc21 [Example 13, 1-[1-(6-Chloro-1-isopropyl-1H-indole-3-carbonyl)-piperidin-4-yl]-1,3-dihydro-benzoimidazol-2-one] | 0.002
18 | Cc1c(C(=O)N2CCC(n3c(=O)n(C)c4ccccc43)CC2)c2ccccc2n1Cc1ccccc1 [Example 9, 1-{1-[(1-benzyl-2-methyl-1H-indol-3-yl)carbonyl]piperidin-4-yl}-3-methyl-1,3-dihydro-2H-benzimidazol-2-one] | 0.013
19 | Cc1cc2c(C(=O)N3CCC(n4c(=O)[nH]c5ccccc54)CC3)cn(CC(=O)N(C)C)c2cc1Cl [Example 47, 2-{6-Chloro-5-methyl-3-[4-(2-oxo-2,3-dihydro-benzoimidazol-1-yl)-piperidine-1-carbonyl]-indol-1-yl}-N,N-dimethyl-acetamide] | 0.005
20 | O=C(c1cn(Cc2ccccc2)c2ccccc12)N1CCC(n2c(=O)[nH]c3ccccc32)CC1 [Example 8, 1-[1-(1-Benzyl-1H-indole-3-carbonyl)-piperidin-4-yl]-1,3-dihydro-benzoimidazol-2-one] | 0.013
21 | O=C(c1cn(C(=O)c2cccc(F)c2)c2cc(Cl)ccc12)N1CCC(n2c(=O)[nH]c3ccccc32)CC1 [Example 28, 1-{1-[6-Chloro-1-(3-fluoro-benzoyl)-1H-indole-3-carbonyl]-piperidin-4-yl}-1,3-dihydro-benzoimidazol-2-one] | 0.012
22 | O=C(Cn1cc(C(=O)N2CCC(n3c(=O)[nH]c4ccccc43)CC2)c2ccc(Cl)cc21)c1cc(F)ccc1F [Example 35, 1-(1-{6-Chloro-1-[2-(2,5-difluoro-phenyl)-2-oxo-ethyl]-1H-indole-3-carbonyl}-piperidin-4-yl)-1,3-dihydro-benzoimidazol-2-one] | 0.005
23 | O=C(Cn1cc(C(=O)N2CCC(n3c(=O)[nH]c4ccccc43)CC2)c2ccc(Cl)cc21)c1cc(F)cc(F)c1 [Example 44, 1-(1-{6-Chloro-1-[2-(3,5-difluoro-phenyl)-2-oxo-ethyl]-1H-indole-3-carbonyl}-piperidin-4-yl)-1,3-dihydro-benzoimidazol-2-one] | 0.017
24 | Cc1c(C(=O)N2CCC(n3c(Cl)nc4ccccc43)CC2)c2ccccc2n1Cc1ccccc1 [Example 1, (1-Benzyl-2-methyl-1H-indol-3-yl)-[4-(2-chloro-benzoimidazol-1-yl)-piperidin-1-yl]-methanone] | 0.045
25 | O=C(c1c[nH]c2cc(Cl)c(F)cc12)N1CCC(n2c(=O)[nH]c3ccccc32)CC1 [Example 19, 1-[1-(6-Chloro-5-fluoro-1H-indole-3-carbonyl)-piperidin-4-yl]-1,3-dihydro-benzoimidazol-2-one] | 0.005
26 | O=C(Cn1cc(C(=O)N2CCC(n3c(=O)[nH]c4ccccc43)CC2)c2ccc(Cl)cc21)c1ccccc1F [Example 38, 1-(1-{6-Chloro-1-[2-(2-fluoro-phenyl)-2-oxo-ethyl]-1H-indole-3-carbonyl}-piperidin-4-yl)-1,3-dihydro-benzoimidazol-2-one] | 0.002
27 | CCN(CC)C(=O)Cn1cc(C(=O)N2CCC(n3c(=O)n(CC(=O)N(CC)CC)c4ccccc43)CC2)c2ccc(Cl)cc21 [Example 43, 2-{6-Chloro-3-[4-(3-diethylcarbamoylmethyl-2-oxo-2,3-dihydro-benzoimidazol-1-yl)-piperidine-1-carbonyl]-indol-1-yl}-N,N-diethyl-acetamide] | 0.062
28 | O=C(c1cn(C(=O)c2ccccc2F)c2cc(Cl)ccc12)N1CCC(n2c(=O)[nH]c3ccccc32)CC1 [Example 30, 1-{1-[6-Chloro-1-(2-fluoro-benzoyl)-1H-indole-3-carbonyl]-piperidin-4-yl}-1,3-dihydro-benzoimidazol-2-one] | 0.035
